Assays:
nicotinic α7 receptor = nicotinic α7 receptor (Homo sapiens, UniProt P36544); experiment: Electrophysiology, co-application with ACh (hump currents, Dynaflow chip); format: cell-based
Experimental: Hump currents are defined as the tail current observed during co-application with endogenous ACh following agonist removal.
The channels were prepared as follows: Control solution (channel #2), application ligand itself (channel #3), application of acetylcholine itself (channel #1), and application of mixture of acetylcholine and ligand (channel #4).
Curve 1, FIG. 7B: The bar above the curve indicates time of ACh application. The curve represents current induced by a one second application of 70 μM ACh. The curve illustrates the result from moving the cell from channel #2 to channel #1 for a 1 second application of ACh and back to channel 2 (washout).
Curve 4, FIG. 7B: Curve 4 represents a repetition of Curve 1 at the end of measurements after application of the ligand and ACh/ligand mixture (recovery).
Curve 2, FIG. 7B: The down/up arrows indicates time of application.

CD-1 mice = experiment: Formalin test; format: in vivo, mouse
Experimental: Subjects (adult male CD-1 mice (Charles River, Raleigh, N.C.) weighing approximately 20-25 grams) were removed from their home cage and weighed, then placed in a clear Plexiglas™ observation box for an acclimation period of 20-30 minutes. Mice were then removed from the observation chambers and (2S,3R)—N-2-((3-pyridinyl)methyl)-1-azabicyclo[2.2.2]oct-3-yl)-3,5-difluorobenzamide (as the hydrochloride salt in 0.9% saline) (1, 3 or 10 mg/kg s.c. (calculated with respect to the free base)), morphine (5 mg/kg; s.c.) or 0.9% saline vehicle was administered subcutaneously in a volume of 1 mL/kg. Mice were then returned to the chamber for the predetermined pretreatment time of 30 minutes for (2S,3R)—N-2-((3-pyridinyl)methyl)-1-azabicyclo[2.2.2]oct-3-yl)-3,5-difluorobenzamide and morphine.
The subject's assigned paw was grasped gently and formalin solution was injected into the paw intra-dermally in the middle on the dorsal side. Once injected, the subject was immediately returned to its observation chamber and a timer was started to mark the beginning of Phase I. Each subject was videotaped for the entire 40-minute session. […] The time spent licking during that 1 min interval was recorded, and the presence or absence of paw favoring was noted.
For data analyses, phase I of the test was defined as 0 to 5 minutes after formalin injection, and phase II was defined as 20 to 40 minutes after formalin injection. The time spent licking during the 1 minute intervals during those time frames was recorded and graphed as mean±S.E.M. For comparisons across treatment groups, 1-way analyses of variance (ANOVAs) were performed for each phase of the session with treatment as the […] variable. Post-hoc analyses were performed when appropriate to determine specific group differences.

db/db mouse = experiment: Murine model of type 2 diabetes mellitus (db/db mouse); format: in vivo; settings: 1.0 mg/kg oral once daily
Description: The db/db mouse, a well established model of type 2 diabetes mellitus, is a leptin-deficient mutant that expresses an obese phenotype and also commonly expresses metabolic symptoms including hyperglycemia, hyperlipidemia and hyperinsulinemia (Halaas et al., 1995 and Lee et al., 1996). This experimental animal model of diabetes was employed in a study designed to determine the effects of (2S,3R)—N-2-((3-pyridinyl)methyl)-1-azabicyclo[2.2.2]oct-3-yl)-3,5-difluorobenzamide on body mass and several additional metabolic parameters.
In this study, (2S,3R)—N-2-((3-pyridinyl)methyl)-1-azabicyclo[2.2.2]oct-3-yl)-3,5-difluorobenzamide was repeatedly administered orally (via gavage) at 1.0 mg/kg once daily starting from the age of approximately 3 weeks and continuing throughout the 7-week study. Nondiabetic heterozygote littermate mice (db/+; designated “Db”) were used as controls. Body weight and food intake were determined twice weekly. The α7 antagonist methyllycaconitine (MLA) was also given concurrently via gavage at 3 mg/kg daily to selected cohorts of db/db (designated “db”) or db/+mice. At the end of the 7-week dosing regimen, total growth rates (overall body weight gain) and average daily food intake were calculated. In addition, glucose levels were assessed in mice fasted overnight. Furthermore, blood sample analytes from mice fasted overnight were collected for measurements of tumor necrosis factor-a (TNF-α), triglycerides and glycosylated hemoglobin (HbA1c). All data are expressed as mean±SEM. For each parameter investigated, differences among all groups were compared by one-way ANOVA with post-hoc Neuman-Keuls multiple comparison test.

[1] = system: ovalbumin-sensitized mice; experiment: White blood cell and differential cell counts in BALF; format: in vivo, mouse
Experimental: Using the method of Hamelmann et al, (2S,3R)—N-2-((3-pyridinyl)methyl)-1-azabicyclo[2.2.2]oct-3-yl)-3,5-difluorobenzamide was evaluated for possible inhibition of airway hyper-responsiveness in mice. Briefly, ovalbumin (OVA)-sensitized animals, 12 animals per group, were challenged by nasal inhalation with aerosolized 5% OVA for 25 min on days 21, 23, and 25. The mice were treated with vehicle or (2S,3R)—N-2-((3-pyridinyl)methyl)-1-azabicyclo[2.2.2]oct-3-yl)-3,5-difluorobenzamide subcutaneously (s.c.) twice daily from day 21 to day 26 or once daily intratracheally (i.t.), preceding ovalbumin aerosol challenge by 30 min on days 21, 23 and 25 as well as methacholine challenge or bronchoalveolar lavage fluids (BALF) harvest on day 26. Dexamethasone, the reference standard, was administered at 3 mg/kg orally (p.o.) once daily 60 min before OVA challenge on day 21, 23 and 25 and 60 min before methacholine provocation or BALF harvest on day 26. Noninvasive measurements of airway responsiveness were performed by using whole body plethysmography, in which increases in enhanced pause (Penh) serve as an index of airway obstruction. Responses to inhaled methacholine were measured and calculated as percentage of respective baseline values. Unpaired Student's t-test was used for comparison between the vehicle control and the sham group; one-way ANOVA and Dunnett's post-hoc analyses were applied for comparison between the vehicle control and treated groups. Statistical significance is considered at P<0.05.

Sequence of nicotinic α7 receptor (P36544 23-502): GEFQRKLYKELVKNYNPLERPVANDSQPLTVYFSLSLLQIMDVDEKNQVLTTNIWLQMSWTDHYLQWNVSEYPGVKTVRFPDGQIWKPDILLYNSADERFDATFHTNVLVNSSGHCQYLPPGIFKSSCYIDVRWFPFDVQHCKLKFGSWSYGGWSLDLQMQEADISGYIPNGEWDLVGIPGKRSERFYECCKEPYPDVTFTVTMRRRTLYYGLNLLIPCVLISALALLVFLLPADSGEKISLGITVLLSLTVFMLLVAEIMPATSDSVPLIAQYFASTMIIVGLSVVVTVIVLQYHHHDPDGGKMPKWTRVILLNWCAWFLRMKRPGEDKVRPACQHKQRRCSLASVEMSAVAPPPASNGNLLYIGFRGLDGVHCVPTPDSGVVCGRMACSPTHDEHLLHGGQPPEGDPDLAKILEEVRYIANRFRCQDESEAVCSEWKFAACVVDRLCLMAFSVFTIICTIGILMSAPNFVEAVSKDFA

## O=C(N[C@@H]1C2CCN(CC2)[C@H]1Cc1cccnc1)c1cc(F)cc(F)c1 [Compound A]
Nicotinic α7 receptor; 200 nM compound with ACh, Curve 3 FIG. 7B
  Hump current on application of compound following ACh: profound “hump” current
Nicotinic α7 receptor; 200 nM, 5 second application, Curve 2 FIG. 7B
  Current produced by compound alone: do not produce robust macro currents
Nicotinic α7 receptor; 100-500 nM range, n=4, FIG. 7C
  Concentration at EMAX of hump current: approximately 500 nM
Nicotinic α7 receptor; FIG. 6
  Effect on ACh-induced current on co-application with ACh: enhanced ACh-induced current
CD-1 mice; 10 mg/kg s.c., 20-40 min after formalin, P<0.05
  Time spent licking the paw, phase II: significant in reducing the time spent licking the paw
CD-1 mice; 1, 3 or 10 mg/kg s.c., 0-5 min after formalin
  Time spent licking, phase I: no statistically significant dose
CD-1 mice; subsequent analysis of the original videotapes
  Time spent licking, phase I or phase II, re-scored across the entire time period: failed to achieve statistical significance
db/db mouse; 7 weeks, obese db/db mice vs vehicle
  All parameters measured (body weight gain, food intake, glucose, HbA1c, TNF-α, triglycerides): significant decrease in all parameters measured
db/db mouse; 7 weeks, obese mice vs obese controls, FIG. 16
  Average daily food consumption: significantly lower
db/db mouse; 7 weeks, obese mice vs vehicle, FIG. 20
  Triglyceride levels: significantly lower
db/db mouse; 7 weeks, obese mice, FIG. 15
  Total body weight gain: significantly lower
db/db mouse; 7 weeks, obese mice, FIG. 17
  Fasting plasma glucose levels: significantly inhibited
db/db mouse; 7 weeks, obese mice, FIG. 18
  Glycosylated HbA1c levels: significantly inhibited
db/db mouse; 7 weeks, obese mice, FIG. 19
  Pro-inflammatory cytokine TNF alpha: significantly reduced
db/db mouse; lean mice (Db), FIG. 16
  Food consumption: unaffected
[1]; 10 mg/kg SC
  Monocytes in BALF: reduced
[1]; 0.1 and 1 mg/kg SC
  Total WBC and eosinophils in BALF: significantly reduced
[1]; 0.1 and 1 mg/kg SC and 10 mg/kg IT
  Lymphocytes in BALF: reduced
[1]; multiple administrations, lacks a consistent dose-response relationship
  Eosinophils and white blood cells in BALF (summary): significant reduction in eosinophils and white blood cells in BALF

— US9173876B2, “Preparation and therapeutic applications of (2S,3R)-N-2-((3-pyridinyl)methyl)-1-azabicyclo[2.2.2]oct-3-yl)-3,5-difluorobenzamide” (Targacept, Inc., priority 2009, dated 2015)
